Values quoted from earlier work as cited in EP0965341A2 (priority 1998, dated 1999).

Test system: Atrial Fibrillation-Induced Electrical Remodeling
Conditions: pretreatment before AF; conclusion quoted from Circulation vol. 96, No.5, Sept. 1997

**Q.** Which “acute, AF-induced changes in atrial electrophysiological properties” value does the source give for CCN(CC)CCNC(=O)c1ccc(N)cc1 [procainamide] here?
**A.** not
